Results on eleven molecules are retold here after patent publication US20110105397A1, “METHOD FOR TREATING HEART FAILURE WITH STRESSCOPIN-LIKE PEPTIDES” (priority 2009, published 2011).

The assay deals with T1, human CRHR2 (Homo sapiens, UniProt Q13324).
T1 construct: expressed in transfected cells
T1 sequence (Q13324 1-411): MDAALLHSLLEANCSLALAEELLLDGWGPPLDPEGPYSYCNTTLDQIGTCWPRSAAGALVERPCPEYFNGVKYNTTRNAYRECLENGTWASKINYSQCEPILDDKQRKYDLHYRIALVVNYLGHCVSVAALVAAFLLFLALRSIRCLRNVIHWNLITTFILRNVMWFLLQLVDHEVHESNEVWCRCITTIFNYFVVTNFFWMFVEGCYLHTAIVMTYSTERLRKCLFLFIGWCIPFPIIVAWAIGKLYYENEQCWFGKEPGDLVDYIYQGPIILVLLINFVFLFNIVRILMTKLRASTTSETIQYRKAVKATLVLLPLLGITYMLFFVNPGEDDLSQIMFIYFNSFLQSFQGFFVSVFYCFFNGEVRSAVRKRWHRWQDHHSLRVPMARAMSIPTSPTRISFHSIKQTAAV
Put plainly: cAMP assay, h-CRHR2 transfected SK-N-MC cells. Type of assay: cell-based. The conditions noted are these: for EC50: read-out: pA50 (converted); for αmax: normalized to the maximum response to h-SCP; for Log DR [M]: h-SCP control pA50 minus test compound pA50 within the same assay batch. The method, then: The concentration required for 50% maximum effect (A50) was 0.4 nM.
Human CRHR1 (accession number X72304) or CRHR2 (accession number U34587) were cloned into pcDNA3.1/Zeo expression vector and stably transfected into SK—N-MC cells by electroporation. Cells were maintained in MEM w/Earl's Salt with 10% FBS, 50 I.U. penicillin, 50 μg/ml streptomycin, 2 mM L-glutamine, 1 mM sodium pyruvate and 0.1 mM non-essential amino acids, 600 μg/ml G418. Cells were grown at 37° C. in 5% CO2
Cells were plated in 96-well tissue culture dishes (Biocoat from BD Biosciences) overnight at 50,000 cell/well. Cells were washed with PBS then resuspended in DMEM F-12 without phenol red, containing 10 μM isobutylmethylxanthine (IBMX). Cells were incubated with the peptides at concentrations ranging from 1 pM to 10 μM for 60 min at 37° Celsius. […] Forskolin (10 μM), a direct stimulant of adenylate cyclase, was used as positive control. The assays were stopped by the addition of 0.5 M HCl and mixing by orbital rotation for 2 h at 4° Celsius.
To assess the activity of the inventive polypeptide at the CRHR2, an intracellular cAMP measurement test using a Flash plate radioactive assay (Catalog No. Cus56088; Perkin Elmer, Mass., U.S.A.) was employed.
Transfected SK—N-MC cells were plated in 96-well Biocoat tissue culture dishes (BD Biosciences, San Jose, Calif., U.S.A) overnight at 50,000 cell/well. Cells were first washed with PBS and then suspended with DMEM/F-12 without phenol red, containing […]. Suspended cells were transferred into a 96-well flash plate coated with scintillant fluid. Cells were incubated with peptides ranging from 1 pM to 1 μM, for 60 min, at 37° Celsius. Forskolin at 10 μM was used as positive control. After ligand stimulation, cells were lysed by the addition of 0.5M HCl and mixed by orbital rotation for 2 h at 4° Celsius in order to release intracellular cAMP into the media.
Media containing released intracellular cAMP was transferred to a 96-well flash plate coated with scintillant fluid containing an anti-cAMP antibody. In this assay, intracellular cAMP competes with ^125I-labeled cAMP binding to the antibody. To generate a standard curve, cAMP ranging from 2.5 to 250 pmoles/ml was included in the experiment. [^125I]-cAMP was measured on a TopCount scintillation counter (Perkin Elmer, Mass., U.S.A).
Individual agonist concentration-response curve data were fitted to the Hill equation, see formula below, using GraphPad Prism (Graphpad Software, La Jolla, Calif., U.S.A.), to provide estimates of agonist concentration needed to generate one-half maximal response (A50), and the maximal asymptote (α) and Hill slope (nH) parameters. In this equation, [A] is the agonist concentration and E is the measured effect:
For display purposes the mean fitted parameter estimates were used to generate a single E/[A] curve shown superimposed on the mean experimental data. Potency estimates for agonists, pA50, are expressed as the negative logarithm of the midpoint of each curve and listed with their standard error of measurement (SEM). Logarithm base 10 of the agonist dose ratio (Log DR) values were calculated by subtraction of the test compound pA50 value from the corresponding h-SCP (SEQ ID NO:1) control pA50 value within the same assay batch. The SEM values of the Log DR values are given by the square root of the sum of the squared SEM values of the h-SCP (SEQ ID NO:1) control and test compound pA50 values.
Human and rat peptides (see Table 10) were used on the stimulation of h-CRHR1 or h-CRHR2 transfected SK—N-MC cells in the cAMP flash plate assay. Peptides were incubated for 1 hr at 37° Celsius. Curves were calculated using non-linear regression sigmoidal concentration-response analysis calculation in GraphPad Prism. The so obtained pA50 values are shown in Table 11 in addition to literature values. […]
For orientation: Changes in cAMP serve as a functional read-out for many G protein-coupled receptors.

Setting [1] is: Table 12, amidation and N-terminal deletions, normalized to maximum response to h-SCP, 3-5 replicate experiments.
The mark [2] stands for this setting: Table 13, cysteine mutation, N-ethylmaleimide capping, pegylation.

Several values for one entry are separate records, joined by “and”; a condition that tells them apart may be missing. Identical values can stand only once. Like-named read-outs stand apart in the source and are kept apart here. Where a SMILES comes first, the peptide text is derived from it. Where no end group is shown, it is not given here. The star is where a group is joined. Succinimide(1-Et,3-yl) = CCN1C(=O)CC(*)C1=O

With “TKFTLSLDVPTNIMNLLFNIAKAKNLRAQAAANAHLMAQI-OH [SEQ ID NO: 113, TKFTLSLDVPTNIMNLLFNIAKAKNLRAQAAANAHLMAQI]”, the “fold less potent than the amidated parent peptide” value is “approximately 200 fold”. For the setting “Table 12”, this molecule returned a nH of 1.07 and a αmax of 107.4. Besides, the EC50 under setting [1] is 79.4 nM.
Where the note is “Table 12”, “KFTLSLDVPTNIMNLLFNIAKAKNLRAQAAANAHLMAQI-NH2 [SEQ ID NO: 107, KFTLSLDVPTNIMNLLFNIAKAKNLRAQAAANAHLMAQI-NH2]” came in with a nH of 1.07 and a αmax of 111.3. In addition, the EC50 under setting [1] is 0.575 nM and 0.562 nM.
For the molecule `CC[C@H](C)[C@H](NC(=O)[C@H](CCC(N)=O)NC(=O)[C@H](C)NC(=O)[C@H](CCSC)NC(=O)[C@H](CC(C)C)NC(=O)[C@H](Cc1c[nH]cn1)NC(=O)[C@H](C)NC(=O)[C@H](CC(N)=O)NC(=O)[C@H](C)NC(=O)[C@H](C)NC(=O)[C@H](C)NC(=O)[C@H](CCC(N)=O)NC(=O)[C@H](C)NC(=O)[C@H](CCCNC(=N)N)NC(=O)[C@H](CC(C)C)NC(=O)[C@H](CC(N)=O)NC(=O)[C@H](CCCCN)NC(=O)[C@H](C)NC(=O)[C@H](CCCCN)NC(=O)[C@H](C)NC(=O)[C@@H](NC(=O)[C@H](CSC1CC(=O)N(CC)C1=O)NC(=O)[C@H](Cc1ccccc1)NC(=O)[C@H](CC(C)C)NC(=O)[C@H](CC(C)C)NC(=O)[C@H](CC(N)=O)NC(=O)[C@H](CCSC)NC(=O)[C@@H](NC(=O)[C@H](CC(N)=O)NC(=O)[C@@H](NC(=O)[C@@H]1CCCN1C(=O)[C@@H](NC(=O)[C@H](CC(=O)O)NC(=O)[C@H](CC(C)C)NC(=O)[C@H](CO)NC(=O)[C@H](CC(C)C)NC(=O)[C@@H](NC(=O)[C@H](Cc1ccccc1)NC(=O)[C@H](CCCCN)NC(=O)[C@@H](N)[C@@H](C)O)[C@@H](C)O)C(C)C)[C@@H](C)O)[C@@H](C)CC)[C@@H](C)CC)C(N)=O` (stereo partly shown) [SEQ ID NO: 52, TKFTL SLDVP TNIMN LLFC(-NES)I AKAKN LRAQA AANAH LMAQI-NH2] (H-TKFTLSLDVPTNIMNLLFC(Succinimide(1-Et,3-yl))IAKAKNLRAQAAANAHLMAQI-NH2; N-terminus assumed), the EC50 under setting [2] is 0.38 nM. In addition, for the setting “Table 13”, the “Log DR [M]” value stood at 0.05.
For `CC[C@H](C)[C@H](NC(=O)[C@H](CCC(N)=O)NC(=O)[C@H](C)NC(=O)[C@H](CCSC)NC(=O)[C@H](CC(C)C)NC(=O)[C@H](Cc1c[nH]cn1)NC(=O)[C@H](C)NC(=O)[C@H](CC(N)=O)NC(=O)[C@H](C)NC(=O)[C@H](C)NC(=O)[C@H](C)NC(=O)[C@H](CCC(N)=O)NC(=O)[C@H](C)NC(=O)[C@H](CCCNC(=N)N)NC(=O)[C@H](CC(C)C)NC(=O)[C@H](CC(N)=O)NC(=O)[C@H](CCCCN)NC(=O)[C@H](C)NC(=O)[C@H](CCCCN)NC(=O)[C@H](C)NC(=O)[C@@H](NC(=O)[C@H](CC(N)=O)NC(=O)[C@H](Cc1ccccc1)NC(=O)[C@H](CSC1CC(=O)N(CC)C1=O)NC(=O)[C@H](CC(C)C)NC(=O)[C@H](CC(N)=O)NC(=O)[C@H](CCSC)NC(=O)[C@@H](NC(=O)[C@H](CC(N)=O)NC(=O)[C@@H](NC(=O)[C@@H]1CCCN1C(=O)[C@@H](NC(=O)[C@H](CC(=O)O)NC(=O)[C@H](CC(C)C)NC(=O)[C@H](CO)NC(=O)[C@H](CC(C)C)NC(=O)[C@@H](NC(=O)[C@H](Cc1ccccc1)NC(=O)[C@H](CCCCN)NC(=O)[C@@H](N)[C@@H](C)O)[C@@H](C)O)C(C)C)[C@@H](C)O)[C@@H](C)CC)[C@@H](C)CC)C(N)=O` (stereo partly shown) [SEQ ID NO: 53, TKFTL SLDVP TNIMN LC(-NES)FNI AKAKN LRAQA AANAH LMAQI-NH2] (H-TKFTLSLDVPTNIMNLC(Succinimide(1-Et,3-yl))FNIAKAKNLRAQAAANAHLMAQI-NH2), under setting [2], the EC50 is about 56.2 nM. Moreover, the “Log DR [M]” value (Table 13) was about 2.22.
For the molecule “TKFTLSLDVPTNIMNLLFNCAKAKNLRAQAAANAHLMAQI-NH2 [SEQ ID NO: 21, TKFTLSLDVPTNIMNLLFNCAKAKNLRAQAAANAHLMAQI-NH2]”, under setting [2], the EC50 is 1.78 nM. Further, the “Log DR [M]” value (Table 13) is on record as 0.77.
For `CC[C@H](C)[C@H](NC(=O)[C@H](CCC(N)=O)NC(=O)[C@H](C)NC(=O)[C@H](CCSC)NC(=O)[C@H](CC(C)C)NC(=O)[C@H](Cc1c[nH]cn1)NC(=O)[C@H](C)NC(=O)[C@H](CC(N)=O)NC(=O)[C@H](C)NC(=O)[C@H](C)NC(=O)[C@H](C)NC(=O)[C@H](CCC(N)=O)NC(=O)[C@H](C)NC(=O)[C@H](CCCNC(=N)N)NC(=O)[C@H](CC(C)C)NC(=O)[C@H](CSC1CC(=O)N(CC)C1=O)NC(=O)[C@H](CCCCN)NC(=O)[C@H](C)NC(=O)[C@H](CCCCN)NC(=O)[C@H](C)NC(=O)[C@@H](NC(=O)[C@H](CC(N)=O)NC(=O)[C@H](Cc1ccccc1)NC(=O)[C@H](CC(C)C)NC(=O)[C@H](CC(C)C)NC(=O)[C@H](CC(N)=O)NC(=O)[C@H](CCSC)NC(=O)[C@@H](NC(=O)[C@H](CC(N)=O)NC(=O)[C@@H](NC(=O)[C@@H]1CCCN1C(=O)[C@@H](NC(=O)[C@H](CC(=O)O)NC(=O)[C@H](CC(C)C)NC(=O)[C@H](CO)NC(=O)[C@H](CC(C)C)NC(=O)[C@@H](NC(=O)[C@H](Cc1ccccc1)NC(=O)[C@H](CCCCN)NC(=O)[C@@H](N)[C@@H](C)O)[C@@H](C)O)C(C)C)[C@@H](C)O)[C@@H](C)CC)[C@@H](C)CC)C(N)=O` (stereo partly shown) [SEQ ID NO: 49, TKFTLSLDVPTNIMNLLFNIAKAKC(-NES) LRAQA AANAH LMAQI-NH2] (H-TKFTLSLDVPTNIMNLLFNIAKAKC(Succinimide(1-Et,3-yl))LRAQAAANAHLMAQI-NH2; N-terminus assumed), under setting [2], the EC50 was 0.437 nM. The “Log DR [M]” value (Table 13) is recorded as 0.11.
Regarding “H-TKFTLSLDVPTNIMNLLFNIAKAKNLRCQAAANAHLMAQI-NH2 [SEQ ID NO: 29, TKFTLSLDVPTNIMNLLFNIAKAKNLRCQAAANAHLMAQI-NH2]”, the EC50 under setting [2] is 0.339 nM. For the same molecule, the “Log DR [M]” value (Table 13) amounted to 0.00.
“CKFTLSLDVPTNIMNLLFNIAKAKNLRAQAAANAHLMAQI-NH2 [SEQ ID NO: 2, CKFTLSLDVPTNIMNLLFNIAKAKNLRAQAAANAHLMAQI-NH2]”: the EC50 under setting [2] was 1.07 nM. In addition, where the note is “Table 13”, the “Log DR [M]” value was determined as 0.72.
For the molecule “H-TKFTLSLDVPTNIMCLLFNIAKAKNLRAQAAANAHLMAQI-NH2 [SEQ ID NO: 16, TKFTLSLDVPTNIMCLLFNIAKAKNLRAQAAANAHLMAQI-NH2]”, under setting [2], the EC50 is 1.17 nM. Moreover, the “Log DR [M]” value (Table 13) worked out at 0.76.
For the molecule “TKFTLSLDVPTNIMNLLFNIAKAKNLRAQAAANAHLMACI-NH2 [SEQ ID NO: 40, TKFTLSLDVPTNIMNLLFNIAKAKNLRAQAAANAHLMACI-NH2]”, the EC50 under setting [2] was 0.832 nM. Moreover, the “Log DR [M]” value (Table 13) is 0.55.
Consider “TKFTLSLDCPTNIMNLLFNIAKAKNLRAQAAANAHLMAQI-NH2 [SEQ ID NO: 10, TKFTLSLDCPTNIMNLLFNIAKAKNLRAQAAANAHLMAQI-NH2]”, for which the EC50 under setting [2] is 5.25 nM. For the same molecule, for the setting “Table 13”, the “Log DR [M]” value is 1.30.
